# Assay results taken from US6582947B1, “Medical use of gene and vector encoding a multisubstrate deoxyribonucleoside kinase” (BIO VICI, priority 1998, dated 2003).
# pIC50: −log10 of the molar value. Where two headings read alike, the source gives them in different places.
# Key:
# HSV-1 TK [1] = target: T1, HSV-1 TK (Human herpesvirus 1, UniProt P0DTH5); assay: biochemical
# Procedure: (§1) The competion experiments were carried out in the following way: The standard reaction mixture contained 2.5 mM MgCl2, 10 mM dithio threitol, 1 mg/ml bovine serum albumin, 2.5 mM ATP, 10 mM NaF, 2 μM methyl-^3H-thymidine, an appropriate amount of a nucleoside analog and the multisubstrate deoxyribonucleoside kinase in an amount resulting in a linear conversion of the substrate, in a total reaction mixture of 50 μl of 50 mM Tris-HCl, pH 8.0. The reaction mixture was incubated at 37° C. for 30 min, and the reaction was terminated by spotting on to DE-81 discs (Whatman). The discs were instantly immersed and washed in ethanol (70%). The filters were dried and assayed for radioactivity in a tuluene-based scintillant.
# recombinant Dm-dNK = target: T2, recombinant Dm-dNK (Drosophila melanogaster, UniProt Q9XZT6); assay: Phosphoryl transfer assay, substrate specificity of recombinant Dm-dNK; settings: naturally occurring nucleosides
# T2 sequence (Q9XZT6 1-250): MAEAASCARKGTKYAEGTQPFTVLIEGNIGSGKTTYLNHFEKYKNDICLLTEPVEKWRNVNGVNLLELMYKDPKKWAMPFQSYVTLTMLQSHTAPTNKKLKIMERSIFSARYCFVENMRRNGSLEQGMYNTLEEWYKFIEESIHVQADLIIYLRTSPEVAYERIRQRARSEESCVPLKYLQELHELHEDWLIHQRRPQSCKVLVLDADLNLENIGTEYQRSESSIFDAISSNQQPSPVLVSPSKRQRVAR
# Procedure: A phosphor transferase assay was used to determine the substrate specificity of the putative deoxyribonucleoside kinase. […] The samples were incubated 30 min at 37° C. 2 μl of the reaction mixtures were spotted on poly(ethyleneimine) cellulose F thin layer chromatography sheets (Merck Inc.) and the nucleotide separated in a buffer containing NH4OH:isobutyric acid:dH2O (1:66:33). The sheets were autoradiographed using phosphoimaging plates (BAS 1000, Fujix).
# deoxyguanosine kinase = target: T3, deoxyguanosine kinase (Homo sapiens, UniProt Q16854); settings: cited from earlier work
# T3 sequence (Q16854 40-277): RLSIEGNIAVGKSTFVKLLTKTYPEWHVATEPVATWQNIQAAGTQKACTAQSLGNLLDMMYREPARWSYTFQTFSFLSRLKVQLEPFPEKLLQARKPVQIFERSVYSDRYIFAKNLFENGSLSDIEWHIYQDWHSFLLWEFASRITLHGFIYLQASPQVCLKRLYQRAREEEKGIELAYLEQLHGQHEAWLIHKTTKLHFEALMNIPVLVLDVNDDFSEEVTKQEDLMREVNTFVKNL
# HSV-TK = settings: cited from earlier work
# HSV-1 TK [2] = target: T1, HSV-1 TK
# Procedure: as §1
# T1 sequence (P0DTH5 whole entry): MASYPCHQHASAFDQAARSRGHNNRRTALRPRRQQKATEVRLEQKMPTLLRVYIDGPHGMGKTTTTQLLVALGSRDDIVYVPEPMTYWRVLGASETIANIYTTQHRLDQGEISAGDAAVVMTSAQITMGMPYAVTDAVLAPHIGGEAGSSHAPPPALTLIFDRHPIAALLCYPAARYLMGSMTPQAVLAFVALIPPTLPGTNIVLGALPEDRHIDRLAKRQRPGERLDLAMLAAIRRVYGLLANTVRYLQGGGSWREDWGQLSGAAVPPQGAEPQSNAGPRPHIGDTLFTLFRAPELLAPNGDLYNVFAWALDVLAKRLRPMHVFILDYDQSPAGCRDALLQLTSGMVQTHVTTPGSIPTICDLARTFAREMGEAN
SMILES,pIC50 (HSV-1 TK [1]),phosphorylation by the enzyme (in words) (recombinant Dm-dNK),phosphorylation by deoxyguanosine kinase (in words) (deoxyguanosine kinase),phosphorylation by HSV-TK (in words) (HSV-TK),pIC50 (HSV-1 TK [2])
"O=c1[nH]c(=O)n([C@@H]2O[C@H](CO)[C@@H](O)[C@@H]2F)cc1I [FIAU, 1-(2-deoxy-2-fluoro-β-D-arabinofuranosyl)-5-iodouracil]",5.70,–,–,–,–
Nc1nc2c(ncn2[C@H]2C[C@H](O)[C@@H](CO)O2)c(=O)[nH]1 [deoxyguanosine],–,efficiently phosphorylated,–,–,–
"O=c1[nH]c(=O)n([C@@H]2O[C@H](CO)[C@@H](O)[C@@H]2O)cc1/C=C/Br [BVaraU, (E)-5-(2-bromovinyl)-1-β-D-arabinofuranosyl-uracil]",5.40,–,does not phosphorylate,–,–
"Nc1ccn([C@H]2CC[C@@H](CO)O2)c(=O)n1 [ddC, 2′,3′-dideoxycytidine]",< 3.00,–,does not phosphorylate,cannot phosphorylate,–
"Nc1nc(Cl)nc2c1ncn2[C@H]1C[C@H](O)[C@@H](CO)O1 [CdA, 2-chloro-2′-deoxyadenosine]",< 3.00,–,–,cannot phosphorylate,–
"O=c1[nH]c(=O)n([C@H]2C[C@H](O)[C@@H](CO)O2)cc1/C=C/Br [BVDU, (E)-5-(2-bromovinyl)-2′-deoxyuridine]",5.52,–,does not phosphorylate,–,–
Nc1ccn([C@H]2C[C@H](O)[C@@H](CO)O2)c(=O)n1 [deoxycytidine],–,efficiently phosphorylated,–,–,–
"O=c1[nH]c(=O)n([C@H]2C[C@H](O)[C@@H](CO)O2)cc1F [FdU, 5-fluorodeoxyuridine]",4.24,–,–,–,–
"Nc1ccn([C@@H]2O[C@H](CO)[C@@H](O)C2(F)F)c(=O)n1 [dFdC, 2′,2′-difluorodeoxycytidine]",< 3.00,–,does not phosphorylate,cannot phosphorylate,–
Nc1ccn(C2CSC(CO)O2)c(=O)n1 (stereo not shown) [3TC],–,–,does not phosphorylate,cannot phosphorylate,< 3.00
"Nc1ccn([C@@H]2O[C@H](CO)[C@@H](O)[C@@H]2O)c(=O)n1 [AraC, 1-β-D-arabinofuranosylcytosine]",< 3.00,–,–,cannot phosphorylate,–
Nc1ncnc2c1ncn2[C@H]1C[C@H](O)[C@@H](CO)O1 [deoxyadenosine],–,efficiently phosphorylated,–,–,–
